# A melting point compilation (Tetko et al.; mined from patent text by program, amines drawn as free bases though some values may be those of a salt)
row,SMILES,melting point [°C]
1,Cc1nc2cccc3n(CCCCCCNS(=O)(=O)CC(F)(F)F)c(=O)c1n23,141 to 143
2,Brc1ccc(OCCc2c[nH]cn2)cc1,162 to 165
3,CCOC(=O)Oc1ccc(OC)c(N)c1,150 to 151
4,COc1ccc(OC(C)(C)C(=O)O)cc1OCCCc1cn(-c2ccc(C(F)(F)F)cn2)nc1C(C)C,106 to 107
5,CCCCc1nc2c(C#N)ncc(C)c2[nH]1,197 to 198
6,Cc1ccc(C(O)(c2ccc(C)cc2)C2CCNCC2)cc1,150 to 153
7,COc1ccc(CNc2ncnc3c2ncn3C2OC(c3nnn[nH]3)C(O)C2O)cc1 (configuration not stated),210 to 211
8,C[C@H]([C@](O)(Cn1cncn1)c1ccc(F)cc1F)S(N)(=O)=O,195 to 197
9,COc1ccc(C(c2ccc(OC)cc2)c2cnccc2C(=O)NC23CC4CC(CC2C4)C3)cc1,110 to 112
10,CCOC(=O)c1c(C)nc2c(cnn2CC)c1Cl,54 to 56
11,CCOC(=O)c1c(C)nn(C)c1S(=O)(=O)NC(=S)Nc1nc(C)cc(OC)n1,157 to 158
12,O=C(CBr)c1csc(C(F)(F)F)n1,36 to 37
13,COc1ccc(-c2c(Br)oc3cc(OC)cc(OC)c23)cc1,125 to 126
14,Oc1nc(C2CC2)nc2c1SCCC2,249 to 250
15,COC(CNC(=O)C(CS)CC(C)C)OC (configuration not stated),34 to 37
16,C[C@@H]1O[C@@]1(Cn1cncn1)c1ccc(Cl)cc1,51 to 53
17,Cn1cc(-c2cccc(C(F)(F)F)c2)c(=O)c(-c2ccccc2Cl)c1,191 to 193
18,Cc1cc2cc(CN3CCCC3)cnc2cc1NC(=O)c1ccc(-c2ccc(F)c(F)c2)cc1,220 to 223
19,NS(=O)(=O)c1ccc(S(=O)(=O)N2CCc3cccc(-c4ccc(F)cc4)c32)cc1,189 to 190
20,Cc1nc(N)c2nc(C)n(CCNS(C)(=O)=O)c2c1C,> 250
21,COc1cc2c(c3c1OC(C)(C)C3)C(c1cccc(N3CCN(C(=O)OC(C)(C)C)S3(=O)=O)c1)=NC(C)(C)C2,157 to 159
22,O=Cc1cc(-n2nnnc2C(F)(F)F)ccc1OCC1CC1,80 to 82

row,SMILES,melting point [°C]
1,OCc1cccnc1Nc1cccc(C(F)(F)F)c1,102
2,Cc1nc2ccc3c(c2o1)O[C@@H](CN[C@H]1CC[C@@H](c2c[nH]c4ccc(F)cc42)CC1)CO3,80 to 82
3,c1ccc(N2c3ccccc3CC2C2=NCCN2)cc1 (configuration not stated),141 to 144
4,COc1ccc2c(c1)CN(C(=O)CN1CCCC1)N=C2Cc1c(Cl)cncc1Cl,148 to 150
5,CC(C)(C)C(=O)Oc1ccc(CCNc2nc(N)n3nc(-c4ccco4)nc3n2)cc1,208 to 210
6,CCCCCCCCCCCCCCCCOc1ccc(O)cc1,87 to 88
7,COC(=O)CCCc1cc2nc(C(F)(F)F)ccc2n1S(=O)(=O)c1ccc2c(c1)OCCN2C,118
8,Cn1cc(-c2cnccn2)cc(Cl)c1=O,197 to 198
9,O=C(O)c1ccc(-n2nnnc2S)cc1,198
10,CN(c1cccc(-c2ccnc3c(C#N)cnn23)c1)S(C)(=O)=O,193 to 195
11,CCCCCCCCCCc1ccc(C(=O)O[C@@H]2CC[C@H](NC(=O)[C@H](OC)[C@H](O)[C@@H](O)[C@H](O)/C=C/C(C)(C)C)C(=O)NC2)cc1,60 to 64
12,CN(C)c1cc2nc(C(C)(C)C)sc2cc1N=C=S,63 to 66
13,COc1cc2c(cc1OC)CC(N(C)CCCN1CCc3cc4c(cc3CC1=O)OCCO4)CC2 (configuration not stated),152 to 157
14,CC(C)(C)C(O)(CCCOc1ccccc1)Cn1cncn1 (configuration not stated),106
15,CC(C)(C(=O)C(Oc1ccc(Cl)cc1Cl)n1cncn1)C(Cl)Cl (configuration not stated),120 to 121
16,COc1cc(OC)nc(Oc2ccc(N(C)C)nc2C(=O)O)n1,195 to 198
17,COC(=O)Cc1ccc(CNC(=O)C2Cc3ccccc3N2S(=O)(=O)c2ccc(-c3ccc(F)cc3F)cc2)cc1 (configuration not stated),68 to 72
18,O=C1CCC(N2Cc3c(OCc4ccc(CN5CCN(C(=O)CCCCC6SCC7NC(=O)NC76)CC5)cc4)cccc3C2=O)C(=O)N1 (configuration not stated),168 to 170
19,N#Cc1ccc(N2CCC(CO)CC2)cc1,148 to 150
20,CCOC(=O)c1cnn2c1nc(NC)c1cnc3c(cnn3CC)c12,321 to 322
21,COc1ccc(F)c2c1C=C(C#N)CO2,133 to 135

# The remaining lines, values ahead:
row,melting point [°C],SMILES
1,74 to 75,COC(=O)CN(C=O)C1c2ccccc2CCC1(C)C (configuration not stated)
2,198 to 200,Cc1nn2ccccc2c1C(=O)C1=CN(C(=O)Nc2ccc(Cl)cc2)CCC1
3,85 to 87,COc1cc(C=CC(=O)Cc2ccccc2)ccc1O
4,129,CC(C)c1nn(-c2ccc(Cl)cc2NO)c(=O)o1
5,145 to 148,CS(=O)(=O)CCOCCn1cnc2c(N)nc3ccccc3c21
6,111 to 115,COc1cc2c(Nc3cccc(Cl)c3F)ncnc2cc1OC1CCN(C(=O)C(C)(C)CO)CC1
7,88,CCCCc1c(C(=O)OCC)[nH]c2c(Br)cccc2c1=O
8,123 to 125,COc1cccc(N(CCN2CCC(C(=O)c3ccc(F)cc3)CC2)C(=O)c2cccc([N+](=O)[O-])c2)c1
9,90 to 92,COC(=O)c1ccc(CN2N=C(c3ccc(OC)c(OC)c3)[C@@H]3CCCC[C@@H]3C2=O)cc1 (relative stereo)
10,193 to 195,COc1cc(C)nc(NC(=S)NNC(=O)c2ccccc2)n1
11,277 to 278,Cc1nc2c(o1)-c1c(SC(C)C)sc(C(=O)O)c1CC2
12,66,CN(C)c1ccccc1CNC(=O)C1Cc2ccccc2N1S(=O)(=O)c1ccc(-c2cccc(C(F)(F)F)c2)cc1 (configuration not stated)
13,172 to 173,O=C(O)c1cccc(-c2ccc(F)c3cc(Cc4cccc(C(F)(F)F)c4)oc23)c1
14,161,c1ccc(Nc2ncnc3cnccc23)cc1
15,147 to 150,CCn1c(-c2ccccc2)c(C2=CCC(C(=O)O)CC2)c2ccccc21 (configuration not stated)
16,156,C(=NNc1ccccc1)c1cccnc1
17,207 to 208,CCc1c(C(=O)O)nn(-c2ccc(Cl)cc2Cl)c1-c1ccc(Cl)s1
18,236 to 237,CCOC(=O)c1nc2scc(COCc3ccc(C#N)cc3)c2c(=O)[nH]1
19,100,Cc1cccc(C)c1C(CNC(=O)OC(C)(C)C)COCc1c(F)cccc1F (configuration not stated)
20,174 to 177,CCCCc1oc2ccccc2c1-c1ncc(-c2ccc3cc(OC(Cc4ccccc4)C(=O)O)ccc3c2)o1 (configuration not stated)
21,165 to 166,N#CCCNC(=O)c1cccc(-c2ccc3c(c2)C(Nc2ccc(Cl)cc2Cl)CO3)c1 (configuration not stated)
22,142 to 143,COc1ccc2c(c1C)OC(C(=O)O)C2 (configuration not stated)
23,135,Cc1ccc(S(=O)(=O)Cc2c(C(F)(F)F)nn(C)c2O)cc1
24,179 to 180,CC(C)(C(=O)OCC(=O)c1ccccc1)n1c(=O)[nH]c2cccc(F)c2c1=O
25,84 to 86,CCOC(=O)Cc1cc(C)c(C(=O)c2ccc(F)cc2)n1C
26,240 to 242,O=C(CCn1cnc2c(=O)[nH]cnc21)NC(Cc1ccccc1)C(=O)O (configuration not stated)
27,124 to 126,CCOC(=O)C(=O)Nc1cccc(N(C)C)c1C#N

row,melting point [°C],SMILES
1,165,CCCc1cc2ccccn2c1C(=O)c1ccc(O)c(Cl)c1
2,89 to 90,Nc1ccc2c(c1)C(C(=O)Oc1ccccc1)CCC2 (configuration not stated)
3,213 to 215,NC(CCCc1ccccc1)C(=O)O (configuration not stated)
4,107 to 109,Cc1cc(SC(C)C)c(NC(=O)CCCCSc2nc3ccccc3s2)c(SC(C)C)n1
5,67,Cc1ccccc1-n1cc(-c2ccccc2)c(CBr)n1
6,156 to 158,c1ccc(CN2C[C@H]3CCCC[C@@]3(Cc3ccccc3)C2)cc1 (relative stereo)
7,207 to 208,COC(=O)C1Cc2c([nH]c3ccccc23)C(c2ccc3c(c2)OCO3)N1C(=O)CCl (configuration not stated)
8,130 to 132,O=C(O)C(Cc1ccccc1)NC(=S)Cc1cccc2ccccc12 (configuration not stated)
9,208,Cc1noc(NC(=O)C2c3ccccc3Oc3ccccc32)n1
10,201 to 202,CNC(=O)c1cccc(NC(=O)Cc2cccc3ccccc23)c1
11,106 to 108,CC(C)Cc1sc2c(c1C(=O)c1ccccc1)CCC2C(=O)O (configuration not stated)
12,149 to 150,CN(c1cccc2cc(C(=O)NCC(C)(C=O)SCc3ccccc3)[nH]c12)S(=O)(=O)c1cccs1 (configuration not stated)
13,97 to 98,COc1nc2ccccc2cc1NC(=O)N1CCN(c2cccc(Cl)c2)CC1
14,91 to 93,CCOC(=O)C[C@H](NC(=O)/C=C/C(=O)c1ccccc1)C(=O)OCC
15,142 to 143,CC(c1ccc(Br)cc1)N1CCC(NC(=O)CCc2nc(-c3ccccn3)no2)CC1 (configuration not stated)
16,206 to 208,O=C(O)COC1c2ccccc2COc2ccc(/C=C/c3ccc4cc(F)c(F)cc4n3)cc21 (configuration not stated)
17,112 to 114,C[N+]([O-])=C(Cn1ccnc1)c1ccc2ccccc2c1
18,164 to 166,O=C(O)C(Cc1ccccc1)Oc1ccc(-c2ccc(-c3c(Cc4ccccc4)oc4ccccc34)cc2)cc1 (configuration not stated)
19,142 to 143,CCOC(=O)c1cnn2c1c(N1CCOCC1)nc1ccccc12
20,162 to 164,Nc1ccc2c(=O)[nH]c(=O)n(CCCCN3CCC(OC(c4ccccc4)c4ccccc4)CC3)c2c1
21,126 to 127,CCc1ccc(C(C)(C)C)c(O)c1C(=O)Nc1ccc(S(=O)(=O)C(F)(F)F)cc1Cl
22,198 to 200,COc1ccc2c(=O)cc(C(=O)N[C@H]3CCN(C(=O)c4cc(C(F)(F)F)cc(C(F)(F)F)c4)[C@H](Cc4ccc(Cl)cc4)C3)oc2c1
23,183 to 185,COc1nccc2c1C(c1ccccc1C(F)(F)F)c1c(ccnc1OC(C)C)N2 (configuration not stated)
24,143,CC1(C)CC(C)(C)c2cc(CC(=O)O)ccc21
25,218 to 220,COc1ccccc1N1CCN([C@@H]2Cc3c(O)cccc3C[C@H]2O)CC1 (relative stereo)
26,219 to 226,O=C1COc2cc3[nH]c(C(=O)N4CCC(Cc5ccc(F)cc5)CC4)cc3cc2N1
27,90 to 92,CCOC(=O)CN(CC=CC(=O)Nc1cc2c(Nc3ccc(F)c(Cl)c3)ncnc2cc1OCC1CC1)CCOC(C)=O
